From patent US20170183318A1, “AMIDE COMPOUNDS, METHODS FOR PREPARATION, AND USE THEREOF AS AGENTS FOR THE TREATMENT AND PREVENTION OF DISEASES CAUSED BY RNA- AND/OR DNA-CONTAINING VIRUSES, AND CONCOMITANT DISEASES” (OBSCHESTVO S OGRANICHENNOI OTVETSTVENNOSTIYU …, priority 2014, published 2017)

How the values were obtained:
[1] = Solubility in water noted for the isolated product; type: physicochemical; conditions: qualitative remark on the isolated product
Staphylococcus aureus = assay: Murine model of staphylococcal pneumonia (bacterial growth from lung imprints); type: in vivo, outbred mice; conditions: reference drug, intravenously, single dose of 20 mg/kg; lung imprints; control 82.5
Description: The efficiency of the compounds was evaluated in outbred mice (females) infected with Staphylococcus aureus (mouse-adapted strain). The administration of the compounds was started 5 days before infection, orally at doses of 15 and 30 mg/kg in a volume of 0.2 mL. On day 5, the mice were infected intranasally under brief ether anesthesia by administration of Staphylococcus aureus at a dose of 10^9 CFU in a volume of 0.05 mL. One hour after infection, the administration of the compounds to the mice was continued at the above-indicated doses for additional 2 days. The reference drug was ampicillin administered intravenously at a single dose of 20 mg/kg. The control was mice infected with Staphylococcus aureus intranasally and treated with PBS. The mice were sacrificed two days after, the breast was dissected, and lung imprints were made in Petri dishes with Columbia agar. After incubation for 24 hours at 30° C., the presence (or absence) of Staphylococcus aureus bacterial growth was fixed in comparison with the control. The intensity of bacterial growth was evaluated in scores and expressed in %.

[2] = test system: Coxsackie A2 virus (strain HCXV A2); assay: Antiviral activity against Coxsackie virus in vivo (mortality and life expectancy of infected mice)
Description: In the study a trypsin-dependent strain HCXV A2 was used, previously adapted and causing death in mice from Coxsackie virus infection.
The experiment was carried out in white mice weighing 6 to 7 g. The animals were infected intramuscularly with a dose of 0.1 mL/mouse. The used infectious dose causing mortality in mice was 10LD50.
The ability of compounds to provide a therapeutic effect was determined by the mortality rate of HCXV A2 virus-infected mice in the experimental group relative to the group of untreated animals.
The studied compounds and placebo were administered orally according to the treatment regimen. Normal saline solution was administered to mice as placebo. Intact animals served as a negative control and were hold in a separate room under the same conditions as the experimental animals.
For the experiment, groups were formed with 14-15 animals each. Compounds were administered at a dose of 30 mg/kg of body weight. The studied compounds were administered orally once daily for 7 days (first administration was made 24 hours after infection). The animals were monitored for 15 days during which the animals were weighed and the mortality rate was registered every day.

[3] = Rat model of nasopharyngitis induced by formalin (nasal mucosa changes, cell elements in nasal lavage); type: in vivo; conditions: Wistar rats, 18 mg/kg for 3 days
Description: Nasopharyngitis was induced by intranasal administration of formalin to each nasal passage of rats.
The administration of formalin to the nasal passages of rats leads to the dissemination of inflammation to adjacent tissues, resulting in a clinical pattern similar to the symptoms of nasopharyngitis in a human.
After an acclimatization period, the following groups were formed: • intact animals administered intragastrically a physiological solution in an amount of 0.2 ml, without induction of nasopharyngitis; • a control group consisted of animals administered intragastrically a physiological solution in an amount of 0.2 ml for 3 days after induction of nasopharyngitis; and • animals administered the studied compounds at a dose of 18 mg/kg for 3 days after induction of nasopharyngitis.
Clinical observation of each animal was performed every day at least twice daily.
The caused pathology was characterized by hyperplasia, increased number of caliciform cells, pronounced infiltration of mononuclear cells and leucocytes, and mucus hyperproduction by submucosal glands.
After euthanasia, the inflammation pattern in the nasal passages and throat was studied in each group of animals. The nasal passages were washed with 5 mL of physiological solution and the score of cell elements were counted in 1 μL.

[4] = test system: herpes simplex virus belonging to antigenic type 2; assay: Murine model of experimental herpetic meningoencephalitis (mortality); type: in vivo, white outbred mice; conditions: Mus musculus, po, 336 h
Description: In the study, herpes simplex virus belonging to antigenic type 2 was used. White outbred mice weighing 7-8 g were infected i/c (intracerebrally) in a volume of 0.05 ml/mouse comprising a dose of 10LD50. The infectious dose of the virus that caused 100% mortality in mice was 10LD50. Each experimental group comprised 20 mice. Intact animals served as control and were hold in a separate room under the same conditions as the experimental animals. The antiviral activity of the compounds of general formula I was studied by oral administration of the compounds to infected mice once daily at a dose of 30 mg/kg/mouse 24, 48, 72, 96, and 120 hours after infection of the animals with the virus. The mice of the control group were administered placebo (0.2 mL of physiological solution) under the same conditions. The animals were monitored for 14 days after infection by registration the mouse death in the groups.
Each animal was subjected to once-daily observation. The observation included the assessment of general behavior and body condition of animals. The animals were handled according to the International Standards.
The activity of the compounds was evaluated by comparing mortality rates in the groups of animals administered a preparation and placebo.

In the case of `NS(=O)(=O)CCC(=O)NCCc1c[nH]cn1` [Compound 145], the Solubility in water [1] was “freely soluble in water”.

In the case of `CC(C)(CCC(=O)O)C(=O)NCCc1cnc[nH]1` [Compound 45], the Solubility in water [1] was “freely soluble in water”.

In the case of `CC1(C)S[C@@H]2[C@H](NC(=O)[C@H](N)c3ccccc3)C(=O)N2[C@H]1C(=O)O` [Ampicillin, ampicillin, reference compound], the “Bacterial growth, in %” value (Staphylococcus aureus) was 25 (sporadic colonies (up to 10)).

With `O=C(O)CCC(O)C(=O)NCCc1cnc[nH]1` (stereo not drawn) [Compound 67] the Solubility in water [1] was “freely soluble in water”, the inhibition in vivo at 30 mg/kg ([2]; Mus musculus, po, 168 h, 30 mg/kg orally once daily for 7 days, vs virus control, read-out: Protective index (%)) was 50% and the mortality at 30 mg/kg ([2]; Mus musculus, po, 360 h, read-out: Total mortality, %) was 35.7%. For the same compound, the “Average life expectancy (days), Compared with control” value ([2]; difference vs virus control, 30 mg/kg orally once daily for 7 days) was “+16.2 days” and the “Average life expectancy (days), Relative” value ([2]; mice infected with 10LD50 HCXV A2, 30 mg/kg orally once daily for 7 days) was 27.0 days.

In the case of `O=C(O)CCCNC(=O)CCc1cnc[nH]1` [Compound 68], the “Mucous membrane of nasal passages: Without changes (number of animals)” value ([3]; number of animals out of n = 10, control 0 of 20) was 3, the “Mucous membrane of nasal passages: Discharge mucus from the nasal passages (number of animals)” value ([3]; number of animals out of n = 10, control 20 of 20) was 7 and the Solubility in water [1] was “freely soluble in water”. The mortality at 30 mg/kg [4] was 30%.
